According to ChEMBL document CHEMBL1201862, “PubChem BioAssay data set” (2004):
Activity calls are given as the source filed them.

Key:
[1] = target: T1, Sentrin-specific protease 7 (Homo sapiens, UniProt Q9BQF6); assay type: functional;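 also: Luminescence-based dose-response confirmation of ultra-high-throughput screening hits, measuring inhibition of SENP7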
T1 sequence (Q9BQF6 whole entry): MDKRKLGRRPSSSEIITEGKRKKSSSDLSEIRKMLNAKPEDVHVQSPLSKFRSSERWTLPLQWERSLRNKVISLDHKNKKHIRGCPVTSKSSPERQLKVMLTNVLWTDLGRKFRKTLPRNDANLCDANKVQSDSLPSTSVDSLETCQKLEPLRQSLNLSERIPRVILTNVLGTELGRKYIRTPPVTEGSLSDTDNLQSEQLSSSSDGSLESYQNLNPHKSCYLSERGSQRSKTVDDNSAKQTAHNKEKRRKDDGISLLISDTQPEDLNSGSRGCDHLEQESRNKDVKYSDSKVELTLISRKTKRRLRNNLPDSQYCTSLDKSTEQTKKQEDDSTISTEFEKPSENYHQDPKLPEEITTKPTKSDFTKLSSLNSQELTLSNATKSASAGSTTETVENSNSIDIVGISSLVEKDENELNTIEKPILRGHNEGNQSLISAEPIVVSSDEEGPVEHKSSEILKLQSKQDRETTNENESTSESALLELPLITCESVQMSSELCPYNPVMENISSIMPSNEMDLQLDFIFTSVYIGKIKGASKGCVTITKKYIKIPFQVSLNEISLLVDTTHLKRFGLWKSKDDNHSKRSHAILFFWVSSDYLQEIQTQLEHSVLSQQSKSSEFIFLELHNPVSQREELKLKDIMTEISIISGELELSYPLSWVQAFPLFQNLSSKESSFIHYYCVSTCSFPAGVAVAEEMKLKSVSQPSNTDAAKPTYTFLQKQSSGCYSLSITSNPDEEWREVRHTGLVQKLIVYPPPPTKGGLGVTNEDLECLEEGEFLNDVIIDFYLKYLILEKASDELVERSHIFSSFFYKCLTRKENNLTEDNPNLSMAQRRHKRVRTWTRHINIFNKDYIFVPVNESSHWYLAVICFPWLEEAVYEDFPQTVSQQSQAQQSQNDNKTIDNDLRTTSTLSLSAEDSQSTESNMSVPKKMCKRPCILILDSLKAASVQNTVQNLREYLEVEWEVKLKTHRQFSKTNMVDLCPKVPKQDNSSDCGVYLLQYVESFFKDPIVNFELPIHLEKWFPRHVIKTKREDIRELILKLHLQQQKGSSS

cells [2] = assay type: functional, cell-based
Caspase-3 = target: T2, Caspase-3 (Homo sapiens, UniProt P42574); assay type: functional;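 also: Dose-response selectivity test against caspase-3 for candidate inhibitors of sentrin-specific proteases (SENPs)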
T2 sequence (P42574 whole entry): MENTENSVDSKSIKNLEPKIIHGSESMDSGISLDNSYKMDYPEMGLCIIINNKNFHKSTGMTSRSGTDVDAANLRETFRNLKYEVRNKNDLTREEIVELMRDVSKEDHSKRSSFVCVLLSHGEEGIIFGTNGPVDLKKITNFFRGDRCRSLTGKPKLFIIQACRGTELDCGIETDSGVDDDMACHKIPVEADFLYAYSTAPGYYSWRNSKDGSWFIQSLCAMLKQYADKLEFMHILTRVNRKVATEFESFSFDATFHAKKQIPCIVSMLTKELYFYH

cells [3] = assay type: functional, cell-based; remark: listed apart in the source
[4] = target: T3, Sentrin-specific protease 8 (Homo sapiens, UniProt Q96LD8); assay type: functional;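 also: luminescence read-out of SENP8 inhibition, dose-response confirmation following an ultra-high-throughput screen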
T3 sequence (Q96LD8 whole entry): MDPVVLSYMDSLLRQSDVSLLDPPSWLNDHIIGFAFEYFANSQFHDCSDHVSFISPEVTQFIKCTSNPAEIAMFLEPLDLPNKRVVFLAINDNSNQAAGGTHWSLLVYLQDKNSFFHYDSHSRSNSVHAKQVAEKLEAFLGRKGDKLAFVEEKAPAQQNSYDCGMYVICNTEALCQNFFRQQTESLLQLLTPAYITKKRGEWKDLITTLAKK

[5] = target: T4, Sentrin-specific protease 6 (Homo sapiens, UniProt Q9GZR1); assay type: functional;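 also: Luminescence-based dose-response confirmatory assay of SENP6 inhibition, following up an ultra-high-throughput screen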
T4 sequence (Q9GZR1 whole entry): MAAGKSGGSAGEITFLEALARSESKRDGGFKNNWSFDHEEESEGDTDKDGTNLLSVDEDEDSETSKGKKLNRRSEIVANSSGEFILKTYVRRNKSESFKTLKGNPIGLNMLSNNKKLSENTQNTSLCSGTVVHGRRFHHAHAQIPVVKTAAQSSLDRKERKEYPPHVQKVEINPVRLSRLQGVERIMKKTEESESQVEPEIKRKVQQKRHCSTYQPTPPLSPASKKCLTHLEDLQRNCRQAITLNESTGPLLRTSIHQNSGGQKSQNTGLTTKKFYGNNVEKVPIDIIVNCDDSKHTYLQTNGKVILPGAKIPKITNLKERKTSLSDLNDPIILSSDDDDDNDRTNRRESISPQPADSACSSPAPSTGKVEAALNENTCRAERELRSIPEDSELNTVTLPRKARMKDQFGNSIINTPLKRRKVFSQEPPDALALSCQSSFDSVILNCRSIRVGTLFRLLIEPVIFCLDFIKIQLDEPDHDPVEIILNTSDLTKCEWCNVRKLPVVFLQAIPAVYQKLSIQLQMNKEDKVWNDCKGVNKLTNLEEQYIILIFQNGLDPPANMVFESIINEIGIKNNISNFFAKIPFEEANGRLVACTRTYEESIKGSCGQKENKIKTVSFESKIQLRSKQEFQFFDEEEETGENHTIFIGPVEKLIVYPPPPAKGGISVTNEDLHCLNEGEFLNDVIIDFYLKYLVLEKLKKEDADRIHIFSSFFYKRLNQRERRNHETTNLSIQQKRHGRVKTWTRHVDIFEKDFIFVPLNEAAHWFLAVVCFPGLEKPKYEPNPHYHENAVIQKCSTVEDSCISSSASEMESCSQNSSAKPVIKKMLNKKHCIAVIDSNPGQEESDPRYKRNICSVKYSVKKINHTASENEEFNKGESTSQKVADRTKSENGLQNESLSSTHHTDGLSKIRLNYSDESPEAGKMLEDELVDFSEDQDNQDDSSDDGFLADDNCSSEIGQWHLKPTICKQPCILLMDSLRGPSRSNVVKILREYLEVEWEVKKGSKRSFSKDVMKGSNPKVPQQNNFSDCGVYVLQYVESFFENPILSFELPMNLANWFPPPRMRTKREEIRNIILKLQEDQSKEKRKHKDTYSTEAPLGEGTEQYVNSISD

[6] = Luminescence Cell-Based Dose Response HTS to Identify Inhibitors of 5'UTR Stem-Loop Driven Prion Protein mRNA Translation in H4 Neuroglioblastoma Cells. [Related pubchem assays: 1827 (Project Summary), 1813 (Primary HTS)]; assay type: functional
[7] = target: DNA dC->dU-editing enzyme APOBEC-3A (Homo sapiens, UniProt P31941); assay: Dose Response confirmation of small molecule APOBEC3A DNA Deaminase Inhibitors via a fluorescence-based single-stranded DNA deaminase assay. [Related pubchem assays (depositor defined):AID493011, AID493024]; assay type: functional
Chain of DNA dC->dU-editing enzyme APOBEC-3A (P31941 whole entry): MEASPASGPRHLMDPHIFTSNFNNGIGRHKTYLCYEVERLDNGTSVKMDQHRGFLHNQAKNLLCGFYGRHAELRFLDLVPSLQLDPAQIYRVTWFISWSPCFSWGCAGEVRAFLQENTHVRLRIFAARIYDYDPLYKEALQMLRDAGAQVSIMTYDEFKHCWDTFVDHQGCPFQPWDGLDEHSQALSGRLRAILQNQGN

[8] = target: DNA dC->dU-editing enzyme APOBEC-3G (Homo sapiens, UniProt Q9HC16); assay type: functional;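 also: Dose-response counterscreen measuring inhibition of APOBEC3G DNA deaminase activity, run while confirming APOBEC3A inhibitors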
Chain of DNA dC->dU-editing enzyme APOBEC-3G (Q9HC16 whole entry): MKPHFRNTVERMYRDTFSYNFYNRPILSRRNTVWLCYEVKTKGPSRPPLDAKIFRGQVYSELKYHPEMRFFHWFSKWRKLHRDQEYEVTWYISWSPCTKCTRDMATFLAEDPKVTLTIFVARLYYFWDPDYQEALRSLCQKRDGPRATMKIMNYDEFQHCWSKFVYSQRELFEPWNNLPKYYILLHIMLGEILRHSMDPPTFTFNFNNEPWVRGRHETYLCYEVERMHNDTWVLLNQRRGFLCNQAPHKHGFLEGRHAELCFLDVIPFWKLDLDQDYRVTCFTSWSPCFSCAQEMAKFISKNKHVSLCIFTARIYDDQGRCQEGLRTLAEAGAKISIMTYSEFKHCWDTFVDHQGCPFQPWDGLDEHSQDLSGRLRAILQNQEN

Troponin, cardiac muscle = Troponin, cardiac muscle (Homo sapiens, UniProt P19429+P45379+P63316); assay: Fluorescence-based biochemical high throughput dose response assay for activators of the calcium sensitivity of cardiac Regulated Thin Filaments (RTF). [Related pubchem assays (depositor defined):AID493008, AID493018, AID504382, AID504383]; assay type: protein-complex assay
Escherichia coli = assay: microbe, parasite or virus in culture
[9] = target: T5, Carboxy-terminal domain RNA polymerase II polypeptide A small phosphatase 1 (Homo sapiens, UniProt Q9GZU7); assay: inhibitors of CTDSP1, concentration-response testing, biochemical assay, absorbance-based, actives from ultra-high-throughput screening (AID 540297); assay type: functional
T5 sequence (Q9GZU7 whole entry): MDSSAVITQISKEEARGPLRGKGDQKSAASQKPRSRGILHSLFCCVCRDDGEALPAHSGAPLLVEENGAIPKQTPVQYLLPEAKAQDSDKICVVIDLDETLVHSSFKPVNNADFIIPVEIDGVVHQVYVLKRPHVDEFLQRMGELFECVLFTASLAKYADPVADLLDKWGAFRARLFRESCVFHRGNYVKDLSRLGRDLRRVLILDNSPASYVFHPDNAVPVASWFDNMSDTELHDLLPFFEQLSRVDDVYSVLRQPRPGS

[10] = target: Eukaryotic translation initiation factor 4E (Mus musculus, UniProt P63073); assay: eIF4E–eIF4G protein interaction inhibitors, dose response, biochemical, TR-FRET (AID 855); assay type: functional;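 also: potency for disrupting eIF4E binding to eIF4GI seen as loss of FRET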
Chain of Eukaryotic translation initiation factor 4E (P63073 whole entry): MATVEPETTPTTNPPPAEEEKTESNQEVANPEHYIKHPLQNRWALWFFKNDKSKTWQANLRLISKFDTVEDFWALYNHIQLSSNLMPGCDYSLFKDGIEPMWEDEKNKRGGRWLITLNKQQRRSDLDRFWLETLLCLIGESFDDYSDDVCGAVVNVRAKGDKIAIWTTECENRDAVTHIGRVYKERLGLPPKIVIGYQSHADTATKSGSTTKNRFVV

Cytochrome P450 2C9 = Cytochrome P450 2C9 (Homo sapiens, UniProt P11712)
Chain of Cytochrome P450 2C9 (P11712 whole entry): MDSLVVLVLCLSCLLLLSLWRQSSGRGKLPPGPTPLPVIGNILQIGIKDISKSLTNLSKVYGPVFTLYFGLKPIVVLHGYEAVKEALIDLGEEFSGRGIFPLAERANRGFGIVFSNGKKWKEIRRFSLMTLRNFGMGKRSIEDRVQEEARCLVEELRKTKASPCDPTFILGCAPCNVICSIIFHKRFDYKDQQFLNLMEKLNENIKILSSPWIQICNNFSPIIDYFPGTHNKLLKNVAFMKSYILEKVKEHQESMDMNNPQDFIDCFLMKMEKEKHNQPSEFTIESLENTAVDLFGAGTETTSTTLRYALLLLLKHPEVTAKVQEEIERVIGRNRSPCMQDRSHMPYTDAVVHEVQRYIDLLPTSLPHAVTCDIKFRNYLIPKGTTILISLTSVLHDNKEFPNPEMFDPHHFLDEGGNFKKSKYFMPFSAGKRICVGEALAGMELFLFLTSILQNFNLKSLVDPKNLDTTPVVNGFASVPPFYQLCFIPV

Cytochrome P450 2D6 = Cytochrome P450 2D6 (Homo sapiens, UniProt P10635);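 also: CYP2D6 member of a cytochrome P450 panel assay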
Chain of Cytochrome P450 2D6 (P10635 whole entry): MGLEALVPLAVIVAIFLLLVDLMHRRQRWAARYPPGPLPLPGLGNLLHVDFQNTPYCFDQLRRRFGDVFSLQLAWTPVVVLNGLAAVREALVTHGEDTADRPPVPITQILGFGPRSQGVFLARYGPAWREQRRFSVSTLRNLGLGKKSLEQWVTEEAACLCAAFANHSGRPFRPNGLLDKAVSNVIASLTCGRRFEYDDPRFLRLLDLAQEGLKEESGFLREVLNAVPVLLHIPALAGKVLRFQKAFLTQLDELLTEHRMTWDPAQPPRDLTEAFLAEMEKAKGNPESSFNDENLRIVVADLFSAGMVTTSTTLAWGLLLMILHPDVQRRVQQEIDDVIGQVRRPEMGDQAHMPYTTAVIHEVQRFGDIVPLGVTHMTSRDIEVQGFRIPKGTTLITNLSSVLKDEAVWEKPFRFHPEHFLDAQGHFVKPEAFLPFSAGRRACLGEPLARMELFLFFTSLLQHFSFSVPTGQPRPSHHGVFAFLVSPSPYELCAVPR

[11] = target: T6, Histone-lysine N-methyltransferase NSD2 (Homo sapiens, UniProt O96028); assay type: biochemical
T6 sequence (O96028 whole entry): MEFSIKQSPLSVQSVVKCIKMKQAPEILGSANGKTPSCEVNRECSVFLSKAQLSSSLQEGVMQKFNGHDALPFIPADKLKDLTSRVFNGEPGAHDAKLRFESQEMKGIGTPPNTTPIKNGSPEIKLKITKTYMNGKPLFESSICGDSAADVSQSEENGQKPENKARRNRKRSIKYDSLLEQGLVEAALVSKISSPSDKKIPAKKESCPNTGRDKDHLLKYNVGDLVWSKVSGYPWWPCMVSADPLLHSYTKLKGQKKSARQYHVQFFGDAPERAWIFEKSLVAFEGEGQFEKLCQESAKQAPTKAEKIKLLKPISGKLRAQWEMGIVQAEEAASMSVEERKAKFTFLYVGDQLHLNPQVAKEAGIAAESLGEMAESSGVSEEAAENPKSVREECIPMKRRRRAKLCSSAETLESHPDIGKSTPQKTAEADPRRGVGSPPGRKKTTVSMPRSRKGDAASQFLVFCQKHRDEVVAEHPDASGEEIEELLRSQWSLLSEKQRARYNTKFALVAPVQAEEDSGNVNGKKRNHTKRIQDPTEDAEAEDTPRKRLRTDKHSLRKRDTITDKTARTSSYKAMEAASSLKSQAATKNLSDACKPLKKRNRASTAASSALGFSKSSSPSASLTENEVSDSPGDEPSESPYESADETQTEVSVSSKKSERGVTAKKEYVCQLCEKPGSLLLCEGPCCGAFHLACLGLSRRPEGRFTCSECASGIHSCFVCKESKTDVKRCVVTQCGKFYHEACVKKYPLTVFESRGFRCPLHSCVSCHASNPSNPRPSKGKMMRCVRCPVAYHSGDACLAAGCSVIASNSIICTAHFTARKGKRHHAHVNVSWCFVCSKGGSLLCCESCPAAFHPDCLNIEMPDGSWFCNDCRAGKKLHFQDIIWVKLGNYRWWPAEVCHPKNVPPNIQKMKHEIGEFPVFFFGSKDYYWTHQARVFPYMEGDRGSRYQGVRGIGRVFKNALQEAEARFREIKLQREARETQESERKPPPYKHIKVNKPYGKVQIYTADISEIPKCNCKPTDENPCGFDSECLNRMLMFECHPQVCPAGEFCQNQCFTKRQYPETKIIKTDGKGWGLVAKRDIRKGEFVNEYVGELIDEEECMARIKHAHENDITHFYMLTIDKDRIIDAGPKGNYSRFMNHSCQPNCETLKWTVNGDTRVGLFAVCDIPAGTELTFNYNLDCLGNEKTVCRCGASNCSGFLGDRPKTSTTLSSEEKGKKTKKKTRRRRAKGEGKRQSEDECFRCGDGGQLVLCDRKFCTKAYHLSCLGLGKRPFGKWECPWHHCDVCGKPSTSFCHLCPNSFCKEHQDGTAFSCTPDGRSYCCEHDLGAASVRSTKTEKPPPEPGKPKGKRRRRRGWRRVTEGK

SMILES: O=C(O)c1ccc2cc(-c3ccccc3)[nH]c2c1
- IC50 [1]: 0.938 µM (active)
- EC50 (cells [2]): > 350 µM (not active)
- IC50 (Caspase-3): 1.22 µM (active)
- EC50 (cells [3]): 2.55 µM (active)
- IC50 [4]: 1.53 µM (active)
- IC50 [5]: 1.08 µM (active)
- EC50 [6]: 11.8 µM (inconclusive)

SMILES: CC(=O)c1ccc[n+](CC(=O)NC(C)c2ccccc2)c1 (centres undefined)
- IC50 [7]: 3.57 µM (active)
- IC50 [8]: 6.17 µM (active)

SMILES: COc1ccc(-c2nn(-c3ccccc3)cc2/C=N/NC(N)=S)cc1OC
- EC50 (Troponin, cardiac muscle): > 71.5 µM (inactive)

SMILES: COc1ccc(Cl)cc1N=C(S)NCc1cccnc1
- AC50 (Escherichia coli): 29.7 µM (active)

SMILES: CCOC(=O)c1ccc(NC(=O)/C=C/c2cccs2)cc1
- IC50 [1]: 4.96 µM (active)
- IC50 (Caspase-3): 21.6 µM (active)
- IC50 [4]: 14.5 µM (active)
- IC50 [5]: 15 µM (active)

SMILES: Nc1nnnn1CC(=O)N/N=C/c1ccc(-c2cccc(Cl)c2)o1
- AC50 (Escherichia coli): 21.6 µM (active)

SMILES: O=C(NCc1ccc(F)cc1)c1c2c(nc3ccccc13)CCC2
- IC50 [9]: 5.44 µM (active)
- IC50 [10]: 50 µM (inactive)

SMILES: O=[N+]([O-])c1cccc(/C=N/Nc2ccccn2)c1
- IC50 [1]: 7.65 µM (active)
- IC50 (Caspase-3): 8.82 µM (active)
- IC50 [4]: > 100 µM (inactive)
- IC50 [5]: > 100 µM (inactive)

SMILES: COc1ccccc1-c1noc(CSc2nc(C)cc(O)n2)n1
- IC50 [7]: 16.6 µM (active)
- IC50 [8]: 19.4 µM (active)

SMILES: Cc1[nH]c2ccccc2c1/C=C(\C#N)C(=O)NC(C)c1ccccc1 (centres undefined)
- AC50 (Cytochrome P450 2C9): inconclusive
- IC50 [7]: 1.87 µM (active)
- IC50 [8]: 2.64 µM (active)
- AC50 (Cytochrome P450 2D6): 8.91 µM (inconclusive)

SMILES: CC1CCc2nn(CC(=O)N3CCCCCC3)cc2C1 (centres undefined)
- IC50 [10]: > 64 µM (inactive)

SMILES: O=C(O)c1ccc(CSc2n[nH]c(-c3ccco3)n2)cc1
- IC50 [7]: 9.95 µM (active)
- AC50 [11]: > 20 µM (inactive)
- IC50 [8]: 19.3 µM (active)

SMILES: CCOC(=O)N1CCC(N(CCN(C)C)C(S)=Nc2ccc(Oc3ccccc3)cc2)CC1
- AC50 (Escherichia coli): 43.6 µM (active)

SMILES: CC1CN(c2ccc(NS(=O)(=O)c3ccccc3)cc2C(=O)O)CC(C)O1 (centres undefined)
- EC50 (Troponin, cardiac muscle): > 71.5 µM (inactive)
